Reference: paper PMC10733463, “Berberine-microbiota interplay: orchestrating gut health through modulation of the gut microbiota and metabolic transformation into bioactive metabolites” (Frontiers in Pharmacology, 2023)

Tested on: caecal microbiota cultures
Assay: 16S sequencing of total (DNA) and active (cDNA) community in caecal microbiota cultures, BBR vs Control
Format: cell-based, broiler chicken
Details: 48 h

For `COc1ccc2cc3[n+](cc2c1OC)CCc1cc2c(cc1-3)OCO2` [Berberine, Berberine chloride], the “L2FC BBRDNA vs ControlDNA” value was 0.44, the “L2FC BBRRNA vs BBRDNA” value was 3.40 and the “L2FC BBRRNA vs ControlRNA” value was 1.34. The “L2FC BBRRNA vs ControlRNA” value (OTU 40798 (Butyricicoccus), active (cDNA) community) was 0.45, the “L2FC BBRRNA vs BBRDNA” value (OTU 40798 (Butyricicoccus), active vs total community in BBR group) was -4.40 and the “L2FC BBRDNA vs ControlDNA” value (OTU 40798 (Butyricicoccus), total (DNA) community) was 0.83. The “L2FC BBRRNA vs ControlRNA” value (OTU 109633 (Eubacterium), active (cDNA) community) was 1.92, the “L2FC BBRRNA vs BBRDNA” value (OTU 109633 (Eubacterium), active vs total community in BBR group) was -0.64 and the “L2FC BBRDNA vs ControlDNA” value (OTU 109633 (Eubacterium), total (DNA) community) was 1.75. The “L2FC BBRRNA vs ControlRNA” value (OTU 129401 (Family_Ruminococcaceae), active (cDNA) community) was 1.00, the “L2FC BBRRNA vs BBRDNA” value (OTU 129401 (Family_Ruminococcaceae), active vs total community in BBR group) was 1.99 and the “L2FC BBRDNA vs ControlDNA” value (OTU 129401 (Family_Ruminococcaceae), total (DNA) community) was 0.84. For the same compound, the “L2FC BBRRNA vs ControlRNA” value (OTU 157573 (Alistipes), active (cDNA) community) was -0.29, the “L2FC BBRRNA vs BBRDNA” value (OTU 157573 (Alistipes), active vs total community in BBR group) was 1.91 and the “L2FC BBRDNA vs ControlDNA” value (OTU 157573 (Alistipes), total (DNA) community) was 0.19. For the same compound, the “L2FC BBRRNA vs ControlRNA” value (OTU 157772 (uncultured Ruminococcaceae), active (cDNA) community) was -0.27, the “L2FC BBRRNA vs BBRDNA” value (OTU 157772 (uncultured Ruminococcaceae), active vs total community in BBR group) was 1.68 and the “L2FC BBRDNA vs ControlDNA” value (OTU 157772 (uncultured Ruminococcaceae), total (DNA) community) was -0.36. For the same compound, the “L2FC BBRRNA vs ControlRNA” value (OTU 180099 (uncultured Lachnospiraceae), active (cDNA) community) was -0.96, the “L2FC BBRRNA vs BBRDNA” value (OTU 180099 (uncultured Lachnospiraceae), active vs total community in BBR group) was -0.59 and the “L2FC BBRDNA vs ControlDNA” value (OTU 180099 (uncultured Lachnospiraceae), total (DNA) community) was -1.55. For the same compound, the “L2FC BBRRNA vs ControlRNA” value (OTU 186881 (Anaerofilum), active (cDNA) community) was -1.11, the “L2FC BBRRNA vs BBRDNA” value (OTU 186881 (Anaerofilum), active vs total community in BBR group) was -0.59 and the “L2FC BBRDNA vs ControlDNA” value (OTU 186881 (Anaerofilum), total (DNA) community) was -1.53. The “L2FC BBRRNA vs ControlRNA” value (OTU 193240 (Butyricicoccus), active (cDNA) community) was -1.08, the “L2FC BBRRNA vs BBRDNA” value (OTU 193240 (Butyricicoccus), active vs total community in BBR group) was -1.42 and the “L2FC BBRDNA vs ControlDNA” value (OTU 193240 (Butyricicoccus), total (DNA) community) was -1.34. The “L2FC BBRRNA vs ControlRNA” value (OTU 196831 (Oscillibacter), active (cDNA) community) was 0.14, the “L2FC BBRRNA vs BBRDNA” value (OTU 196831 (Oscillibacter), active vs total community in BBR group) was 2.09 and the “L2FC BBRDNA vs ControlDNA” value (OTU 196831 (Oscillibacter), total (DNA) community) was 0.24. The “L2FC BBRRNA vs ControlRNA” value (OTU 199555 ([Ruminococcus] torques group), active (cDNA) community) was -1.39, the “L2FC BBRRNA vs BBRDNA” value (OTU 199555 ([Ruminococcus] torques group), active vs total community in BBR group) was -0.15 and the “L2FC BBRDNA vs ControlDNA” value (OTU 199555 ([Ruminococcus] torques group), total (DNA) community) was -1.72. The “L2FC BBRRNA vs ControlRNA” value (OTU 233953 (Erysipelatoclostridium), active (cDNA) community) was -1.85, the “L2FC BBRRNA vs BBRDNA” value (OTU 233953 (Erysipelatoclostridium), active vs total community in BBR group) was -0.21 and the “L2FC BBRDNA vs ControlDNA” value (OTU 233953 (Erysipelatoclostridium), total (DNA) community) was -1.14. For the same compound, the “L2FC BBRRNA vs ControlRNA” value (OTU 234912 (Ruminococcaceae UCG-013), active (cDNA) community) was -2.52, the “L2FC BBRRNA vs BBRDNA” value (OTU 234912 (Ruminococcaceae UCG-013), active vs total community in BBR group) was -0.46 and the “L2FC BBRDNA vs ControlDNA” value (OTU 234912 (Ruminococcaceae UCG-013), total (DNA) community) was -3.19. The “L2FC BBRRNA vs ControlRNA” value (OTU 240271 (uncultured Ruminococcaceae), active (cDNA) community) was 0.20, the “L2FC BBRRNA vs BBRDNA” value (OTU 240271 (uncultured Ruminococcaceae), active vs total community in BBR group) was 1.89 and the “L2FC BBRDNA vs ControlDNA” value (OTU 240271 (uncultured Ruminococcaceae), total (DNA) community) was 0.33. The “L2FC BBRRNA vs ControlRNA” value (OTU 249142 ([Ruminococcus] torques group), active (cDNA) community) was -3.17, the “L2FC BBRRNA vs BBRDNA” value (OTU 249142 ([Ruminococcus] torques group), active vs total community in BBR group) was -0.87 and the “L2FC BBRDNA vs ControlDNA” value (OTU 249142 ([Ruminococcus] torques group), total (DNA) community) was -2.54. The “L2FC BBRRNA vs ControlRNA” value (OTU 293975 (uncultured Lachnospiraceae), active (cDNA) community) was -2.01, the “L2FC BBRRNA vs BBRDNA” value (OTU 293975 (uncultured Lachnospiraceae), active vs total community in BBR group) was 0.18 and the “L2FC BBRDNA vs ControlDNA” value (OTU 293975 (uncultured Lachnospiraceae), total (DNA) community) was -1.62. For the same compound, the “L2FC BBRRNA vs ControlRNA” value (OTU 294545 (Ruminiclostridium), active (cDNA) community) was -0.23, the “L2FC BBRRNA vs BBRDNA” value (OTU 294545 (Ruminiclostridium), active vs total community in BBR group) was 1.73 and the “L2FC BBRDNA vs ControlDNA” value (OTU 294545 (Ruminiclostridium), total (DNA) community) was 0.21. For the same compound, the “L2FC BBRRNA vs ControlRNA” value (OTU 308157 (Butyricicoccus), active (cDNA) community) was 0.37, the “L2FC BBRRNA vs BBRDNA” value (OTU 308157 (Butyricicoccus), active vs total community in BBR group) was -1.55 and the “L2FC BBRDNA vs ControlDNA” value (OTU 308157 (Butyricicoccus), total (DNA) community) was 0.47. The “L2FC BBRRNA vs ControlRNA” value (OTU 315223 (Anaerotruncus), active (cDNA) community) was 0.81, the “L2FC BBRRNA vs BBRDNA” value (OTU 315223 (Anaerotruncus), active vs total community in BBR group) was 2.28 and the “L2FC BBRDNA vs ControlDNA” value (OTU 315223 (Anaerotruncus), total (DNA) community) was 0.02. The “L2FC BBRRNA vs ControlRNA” value (OTU 349246 (Ruminiclostridium 9), active (cDNA) community) was -1.09, the “L2FC BBRRNA vs BBRDNA” value (OTU 349246 (Ruminiclostridium 9), active vs total community in BBR group) was 1.04 and the “L2FC BBRDNA vs ControlDNA” value (OTU 349246 (Ruminiclostridium 9), total (DNA) community) was -0.39. For the same compound, the “L2FC BBRRNA vs ControlRNA” value (OTU 350256 (Intestinimonas), active (cDNA) community) was -0.58, the “L2FC BBRRNA vs BBRDNA” value (OTU 350256 (Intestinimonas), active vs total community in BBR group) was 1.65 and the “L2FC BBRDNA vs ControlDNA” value (OTU 350256 (Intestinimonas), total (DNA) community) was -0.23. For the same compound, the “L2FC BBRRNA vs ControlRNA” value (OTU 356073 ([Eubacterium] xylanophilum group), active (cDNA) community) was -1.98, the “L2FC BBRRNA vs BBRDNA” value (OTU 356073 ([Eubacterium] xylanophilum group), active vs total community in BBR group) was -1.05 and the “L2FC BBRDNA vs ControlDNA” value (OTU 356073 ([Eubacterium] xylanophilum group), total (DNA) community) was -1.79. The “L2FC BBRRNA vs ControlRNA” value (OTU 362793 (Oscillibacter), active (cDNA) community) was 0.13, the “L2FC BBRRNA vs BBRDNA” value (OTU 362793 (Oscillibacter), active vs total community in BBR group) was 2.11 and the “L2FC BBRDNA vs ControlDNA” value (OTU 362793 (Oscillibacter), total (DNA) community) was 0.33. The “L2FC BBRRNA vs ControlRNA” value (OTU 364341 (Family_Ruminococcaceae), active (cDNA) community) was 0.25, the “L2FC BBRRNA vs BBRDNA” value (OTU 364341 (Family_Ruminococcaceae), active vs total community in BBR group) was 1.56 and the “L2FC BBRDNA vs ControlDNA” value (OTU 364341 (Family_Ruminococcaceae), total (DNA) community) was 0.20. The “L2FC BBRRNA vs ControlRNA” value (OTU 368615 (uncultured Lachnospiraceae), active (cDNA) community) was -0.96, the “L2FC BBRRNA vs BBRDNA” value (OTU 368615 (uncultured Lachnospiraceae), active vs total community in BBR group) was -1.57 and the “L2FC BBRDNA vs ControlDNA” value (OTU 368615 (uncultured Lachnospiraceae), total (DNA) community) was -0.96. For the same compound, the “L2FC BBRRNA vs ControlRNA” value (OTU 408513 (Ruminiclostridium 9), active (cDNA) community) was -3.12, the “L2FC BBRRNA vs BBRDNA” value (OTU 408513 (Ruminiclostridium 9), active vs total community in BBR group) was 1.43 and the “L2FC BBRDNA vs ControlDNA” value (OTU 408513 (Ruminiclostridium 9), total (DNA) community) was -2.29. The “L2FC BBRRNA vs ControlRNA” value (OTU 443620 (uncultured Ruminococcaceae), active (cDNA) community) was -0.74, the “L2FC BBRRNA vs BBRDNA” value (OTU 443620 (uncultured Ruminococcaceae), active vs total community in BBR group) was 0.61 and the “L2FC BBRDNA vs ControlDNA” value (OTU 443620 (uncultured Ruminococcaceae), total (DNA) community) was 0.83. The “L2FC BBRRNA vs ControlRNA” value (OTU 461487 (Ruminococcaceae UCG-014), active (cDNA) community) was -0.55, the “L2FC BBRRNA vs BBRDNA” value (OTU 461487 (Ruminococcaceae UCG-014), active vs total community in BBR group) was -3.30 and the “L2FC BBRDNA vs ControlDNA” value (OTU 461487 (Ruminococcaceae UCG-014), total (DNA) community) was -0.15. The “L2FC BBRRNA vs ControlRNA” value (OTU 510295 (Fournierella), active (cDNA) community) was 0.35, the “L2FC BBRRNA vs BBRDNA” value (OTU 510295 (Fournierella), active vs total community in BBR group) was -2.43 and the “L2FC BBRDNA vs ControlDNA” value (OTU 510295 (Fournierella), total (DNA) community) was 0.86. For the same compound, the “L2FC BBRRNA vs ControlRNA” value (OTU 519763 (Intestinimonas), active (cDNA) community) was 1.22, the “L2FC BBRRNA vs BBRDNA” value (OTU 519763 (Intestinimonas), active vs total community in BBR group) was 2.52 and the “L2FC BBRDNA vs ControlDNA” value (OTU 519763 (Intestinimonas), total (DNA) community) was 1.10.
